Experimental data reported in US20230111310A1, “CARBOXYLIC ACID DERIVATIVE-SUBSTITUTED IMINO ARYL COMPOUND, PREPARATION METHOD THEREFOR, HERBICIDAL COMPOSITION AND USE THEREOF” (Qingdao Kingagroot Chemical Compound Co., Ltd., priority 2020, published 2023).

Experiments:
Descurainia sophia = assay: Composition activity test, soil sealing treatment; type: in vivo
Method: are as follows, and the others were purchased from reagent companies. The technical materials were all dissolved in acetone and diluted with an aqueous solution containing 0.1% emulsifier Tween-80. The dilution is performed as required.
Weeds are cultivated in a controllable sunlight greenhouse at 20 to 30° C., in natural light, and relative humidity of 57% to 72%. […] The test soil was placed quantitatively to 3/4 of the pots and then watered from the bottom of the pots to completely wet the soil to saturation. The test weed seeds were germinated, and uniformly and quantitatively sowed on the surface, then covered with 0.5-2 cm soil according to the seed size, and ready-for use 72 hours after sowing.
3 pots with 30 weed seeds per pot were treated in one treatment with 4 replications per treatment.
The well-sowed weeds were evenly placed on a platform with an area of 0.5 m^2, and a solution of agents was sprayed on the soil thereof by the 3WP-2000-type walking spray tower at a dosage of 450 kg/ha and at a spray pressure of 0.3 MPa. After all the solution was sprayed, the valve was closed. After 30 seconds, the door of the spray tower was opened, and the nutritional bowl was taken out. Then the valve was opened, and the spray tube was cleaned by spraying 50 ml of water.
A method for investigating absolute number was employed, wherein whole seedlings of survival weeds were cut off with a blade along the soil surface, and the fresh weight of the weeds was weighed with an analytical balance. For dead weeds, the fresh weight thereof was zero.
The investigation was performed after 21 days of the treatment for only once.
An optimum ratio of the two active ingredients was determined by the actual control effect, characteristics of herbicides, and balance of a corresponding formula. Wherein, in the formula, X represented the fresh weight inhibition rate of the active ingredient A in a dosage of P, and Y represented the fresh weight inhibition rate of the active ingredient B in a dosage of Q. The statistical results were shown in the table 6.

[1] = test system: Echinochloa caudata Roshev.; assay: Composition activity test, post-emergence foliage spray; type: in vivo

CN(C(=O)COc1nc2ccccc2s1)c1ccccc1 [mefenacet]
Control effect (%) of B applied alone (B) (Descurainia sophia; B 150 g a.i./ha): 46.4%

CCCOCCN(C(=O)CCl)c1c(CC)cccc1CC [pretilachlor]
Control effect (%) of B applied alone (B) (Descurainia sophia; B 180 g a.i./ha): 51.2%

Cn1nc(C(F)(F)F)c(CS(=O)(=O)C2=NOC(C)(C)C2)c1OC(F)F [pyroxasulfone]
Control effect (%) of B applied alone (B) (Descurainia sophia; B 60 g a.i./ha): 57.6%

CCc1cccc(C)c1N(C(=O)CCl)[C@@H](C)COC [s-metolachlor]
Control effect (%) of B applied alone (B) (Descurainia sophia; B 150 g a.i./ha): 31.3%

Cc1nn(C)cc1C(=O)Oc1c(C(=O)c2ccc(C(F)(F)F)cc2S(C)(=O)=O)c(C)nn1C [shuangzuocaotong]
Control effect (%) of B applied alone (B) ([1]; B 15 g a.i./ha): 35.9%

CS(=O)(=O)c1ccc(C(=O)C2C(=O)CCCC2=O)c(Cl)c1COCC1CCCO1 (centres unmarked) [tefuryltrione]
Control effect (%) of B applied alone (B) ([1]; B 30 g a.i./ha): 21.5%

CS(=O)(=O)c1ccc(C(=O)C2C(=O)CCCC2=O)c(Cl)c1COCC(F)(F)F [tembotrione]
Control effect (%) of B applied alone (B) ([1]; B 15 g a.i./ha): 31.7%

Cc1c(C(=O)c2cnn(C)c2O)ccc(S(C)(=O)=O)c1C1=NOCC1 [topramezone]
Control effect (%) of B applied alone (B) ([1]; B 7.5 g a.i./ha): 38.5%
